Source: publication PMC4556830, “The Effect of MGCD0103 on CYP450 Isoforms Activity of Rats by Cocktail Method” (BioMed Research International, 2015)

How the values were obtained:
[1] = Pharmacokinetics of six cocktail probe drugs in rat plasma (UPLC-MS/MS) after 7-day MGCD0103 or saline
Method: The compounds were analyzed by a UPLC-MS/MS with ACQUITY I-Class UPLC and a XEVO TQD triple quadrupole mass spectrometer that was equipped with an electrospray ionization (ESI) interface (Waters Corp., Milford, MA, USA). The UPLC system included a Sample Manager with Flow-Through Needle (SM-FTN) and a Binary Solvent Manager (BSM). Data acquisition and instrument control were performed on the MassLynx 4.1 software (Waters Corp., Milford, MA, USA).
The initial mobile phase consisted of 0.1% formic acid and acetonitrile with gradient elution at a flow rate of 0.4 mL/min and an injection volume of 2 μL. […] The total run time of the analysis was 3 min.
The mass spectrometric detection was performed in a positive mode. Nitrogen was used as the cone gas (50 L/h) and desolvation gas (1000 L/h). The mass conditions were set as follows: source temperature 150°C, capillary voltage 2.5 kV, and desolvation temperature 500°C.
(§1) Forty rats (220 ± 20 g) were randomly divided into four different dosages of MGCD0103 groups (Low group, Medium group, High group, and control group with 10 rats in each group). MGCD0103 was dissolved in corn oil as suspension at three different concentrations (20, 40, and 80 mg/mL). Three different MGCD0103 groups (Low group, Medium group, and High group) were respectively given MGCD0103 20, 40, and 80 mg/kg one time by intragastric administration at every morning and last for 7 days. Control group were given saline by same administration method.
100 μL of plasma was obtained from blood sample after centrifugation at 4000 g for 10 min. In a 1.5 mL centrifuge tube, 200 μL of acetonitrile (containing 50 ng/mL IS) was added into 100 μL of collected plasma sample. […] Then supernatant (2 μL) was injected into the UPLC-MS/MS system for analysis.
(§2) Concentration of plasma probe drugs versus time was analyzed by Version 3.0 Data Analysis System (Wenzhou Medical University, China). The main pharmacokinetic parameters of the MGCD0103 group and control group were analyzed by SPSS l8.0 statistical software.

[2] = target: T1, CYP2D4 (Rattus norvegicus, UniProt Q64680); assay: Cocktail method, metoprolol probe: effect of MGCD0103 on CYP2D4 activity; assay type: in vivo; settings: 7-day intragastric MGCD0103 20, 40, 80 mg/kg
T1 construct: we investigated the effects of 7-day intragastric administration of MGCD0103 on the activity of CYP enzymes in vivo; from tissue; host or cells: living rats (in vivo)
T1 sequence (Q64680 1-500): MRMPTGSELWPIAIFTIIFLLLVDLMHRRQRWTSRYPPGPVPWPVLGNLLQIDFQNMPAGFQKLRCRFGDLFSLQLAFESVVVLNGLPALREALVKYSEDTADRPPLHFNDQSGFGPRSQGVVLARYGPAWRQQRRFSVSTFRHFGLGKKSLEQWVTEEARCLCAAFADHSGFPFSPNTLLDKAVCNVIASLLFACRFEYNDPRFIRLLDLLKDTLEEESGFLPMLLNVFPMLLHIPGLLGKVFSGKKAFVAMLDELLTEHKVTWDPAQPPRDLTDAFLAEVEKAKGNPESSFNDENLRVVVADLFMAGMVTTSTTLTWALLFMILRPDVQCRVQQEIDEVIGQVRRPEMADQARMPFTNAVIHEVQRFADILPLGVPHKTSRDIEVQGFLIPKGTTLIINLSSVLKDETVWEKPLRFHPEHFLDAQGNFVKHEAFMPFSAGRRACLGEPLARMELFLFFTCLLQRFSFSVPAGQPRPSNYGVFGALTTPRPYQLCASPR
Method: as §1
(§3) Blood (0.3 mL) samples were collected into heparinized 1.5 mL polythene tubes from the tail vein at 0.0833, 0.5, 1, 2, 3, 4, 6, 8, 12, 24, and 48 h after intragastric administration of six probe drugs. 100 μL of plasma was obtained from blood sample after centrifugation at 4000 g for 10 min. In a 1.5 mL centrifuge tube, 200 μL of acetonitrile (containing 50 ng/mL IS) was added into 100 μL of collected plasma sample. After vortex-mixing for 1.0 min, the sample was centrifuged at 13000 g for 15 min. Then supernatant (2 μL) was injected into the UPLC-MS/MS system for analysis.
as §2

[3] = test system: CYP2C11; assay: Cocktail method, tolbutamide probe: effect of MGCD0103 on CYP2C11 activity; assay type: in vivo, rat
Method: as §1, §3, §2

[4] = target: T2, CYP2B1 (Rattus norvegicus, UniProt P00176); assay: Cocktail method, bupropion probe: effect of MGCD0103 on CYP2B1 activity; assay type: in vivo; settings: 7-day intragastric MGCD0103 20, 40, 80 mg/kg
T2 construct: we investigated the effects of 7-day intragastric administration of MGCD0103 on the activity of CYP enzymes in vivo; from tissue; host or cells: living rats (in vivo)
T2 sequence (P00176 1-491): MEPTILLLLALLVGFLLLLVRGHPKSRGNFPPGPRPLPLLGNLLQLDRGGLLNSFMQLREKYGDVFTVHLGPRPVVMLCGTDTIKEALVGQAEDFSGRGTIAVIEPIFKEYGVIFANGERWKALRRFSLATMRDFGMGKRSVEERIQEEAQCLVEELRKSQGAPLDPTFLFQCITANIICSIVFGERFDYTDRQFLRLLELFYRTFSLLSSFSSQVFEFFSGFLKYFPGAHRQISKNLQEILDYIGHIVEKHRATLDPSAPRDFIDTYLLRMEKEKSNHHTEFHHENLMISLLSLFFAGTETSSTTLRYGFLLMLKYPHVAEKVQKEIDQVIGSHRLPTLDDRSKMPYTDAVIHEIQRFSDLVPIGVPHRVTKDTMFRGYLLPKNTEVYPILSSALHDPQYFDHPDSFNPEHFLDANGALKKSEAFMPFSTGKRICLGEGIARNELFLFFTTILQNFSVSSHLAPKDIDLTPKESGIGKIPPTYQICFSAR
Method: as §1, §3, §2

[5] = target: T3, CYP1A2 (Rattus norvegicus, UniProt P04799); assay: Cocktail method, phenacetin probe: effect of MGCD0103 on CYP1A2 activity; assay type: in vivo; settings: 7-day intragastric MGCD0103 20, 40, 80 mg/kg
T3 construct: we investigated the effects of 7-day intragastric administration of MGCD0103 on the activity of CYP enzymes in vivo; from tissue; host or cells: living rats (in vivo)
T3 sequence (P04799 1-513): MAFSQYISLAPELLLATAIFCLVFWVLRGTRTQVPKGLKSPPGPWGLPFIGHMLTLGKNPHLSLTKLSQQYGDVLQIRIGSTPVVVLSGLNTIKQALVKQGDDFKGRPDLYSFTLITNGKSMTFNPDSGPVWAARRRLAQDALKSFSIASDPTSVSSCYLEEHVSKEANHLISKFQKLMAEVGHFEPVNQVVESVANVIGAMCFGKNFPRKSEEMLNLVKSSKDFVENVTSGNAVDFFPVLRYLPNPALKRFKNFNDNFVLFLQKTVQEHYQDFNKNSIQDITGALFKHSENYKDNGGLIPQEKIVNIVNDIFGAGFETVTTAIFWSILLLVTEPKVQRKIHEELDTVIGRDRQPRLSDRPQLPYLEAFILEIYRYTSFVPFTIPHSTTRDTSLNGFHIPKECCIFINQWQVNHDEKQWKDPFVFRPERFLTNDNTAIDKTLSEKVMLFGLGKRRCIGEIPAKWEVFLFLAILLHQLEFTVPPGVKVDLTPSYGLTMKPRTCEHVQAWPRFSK
Method: as §1, §3, §2

[6] = test system: liver; assay: Liver histopathology (HE staining) after MGCD0103; assay type: in vivo, rat
Method: After pharmacokinetic properties analysis, rats were deeply anesthetized with 10% chloral hydrate (i.p., […]). The livers of control group and MGCD0103 treated groups were rapidly isolated and immersed in freshly prepared 4% w/v formaldehyde (0.1 M phosphate buffer, pH 7.2) for 48 h and then embedded in paraffin. Then 5 μm thick histologic sections were prepared and stained with routine HE method (hematoxylin and eosin). The morphological changes of liver were observed under light microscope.

[7] = target: T4, CYP3A2 (Rattus norvegicus, UniProt P05183); assay: Cocktail method, testosterone probe: effect of MGCD0103 on CYP3A2 activity; assay type: in vivo; settings: 7-day intragastric MGCD0103 20, 40, 80 mg/kg
T4 construct: we investigated the effects of 7-day intragastric administration of MGCD0103 on the activity of CYP enzymes in vivo; from tissue; host or cells: living rats (in vivo)
T4 sequence (P05183 1-504): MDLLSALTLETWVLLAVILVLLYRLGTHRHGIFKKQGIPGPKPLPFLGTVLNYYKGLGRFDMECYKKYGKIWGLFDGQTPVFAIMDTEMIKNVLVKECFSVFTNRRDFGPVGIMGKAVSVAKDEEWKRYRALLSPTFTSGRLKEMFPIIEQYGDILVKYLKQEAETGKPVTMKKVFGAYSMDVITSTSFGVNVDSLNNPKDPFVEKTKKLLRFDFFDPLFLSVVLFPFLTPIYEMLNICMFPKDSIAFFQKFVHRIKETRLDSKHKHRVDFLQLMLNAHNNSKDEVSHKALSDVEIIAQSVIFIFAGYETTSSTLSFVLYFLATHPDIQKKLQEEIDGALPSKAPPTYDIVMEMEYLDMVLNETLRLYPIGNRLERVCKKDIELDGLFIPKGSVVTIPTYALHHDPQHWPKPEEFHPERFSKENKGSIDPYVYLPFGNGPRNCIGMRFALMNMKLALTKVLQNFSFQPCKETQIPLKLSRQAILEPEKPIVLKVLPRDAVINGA
Method: as §1, §3, §2

[8] = Control group: saline i.g. 7 days (no MGCD0103), then probe 10 mg/kg (tolbutamide 1 mg/kg) i.g., rat plasma, mean ± SD, n = 10
[9] = High group: MGCD0103 80 mg/kg i.g. 7 days, then probe 10 mg/kg (tolbutamide 1 mg/kg) i.g., rat plasma, mean ± SD, n = 10
[10] = Low group: MGCD0103 20 mg/kg i.g. 7 days, then probe 10 mg/kg (tolbutamide 1 mg/kg) i.g., rat plasma, mean ± SD, n = 10
[11] = Medium group: MGCD0103 40 mg/kg i.g. 7 days, then probe 10 mg/kg (tolbutamide 1 mg/kg) i.g., rat plasma, mean ± SD, n = 10
[12] = high dosage MGCD0103 group vs control, p < 0.05

SMILES: CCCCNC(=O)NS(=O)(=O)c1ccc(C)cc1 [Tolbutamide]
- AUC(0–t) [1, 8]: 88701.2 ± 19274.8 ng/mL∗h
- AUC(0–∞) [1, 8]: 89852.0 ± 19168.1 ng/mL∗h
- V [1, 8]: 0.088 ± 0.019 L/kg
- AUC(0–t) [1, 9]: 64052.9 ± 15988.6^∗ ng/mL∗h
- AUC(0–∞) [1, 9]: 64353.2 ± 15998.9^∗ ng/mL∗h
- V [1, 9]: 0.099 ± 0.020 L/kg
- AUC(0–t) [1, 10]: 82724.8 ± 13265.9 ng/mL∗h
- AUC(0–∞) [1, 10]: 83176.9 ± 13264.2 ng/mL∗h
- V [1, 10]: 0.090 ± 0.014 L/kg
- AUC(0–t) [1, 11]: 72448.6 ± 14850.4 ng/mL∗h
- AUC(0–∞) [1, 11]: 72761.4 ± 14754.7 ng/mL∗h
- V [1, 11]: 0.093 ± 0.010 L/kg
- half-life ([1]; Sprague-Dawley, rat, in vivo, po, t 1/2): 5.2 ± 1.2 h
- change of AUC(0–t) versus control group [1, 12]: decreased
- change of CL versus control group [1, 12]: increased

SMILES: COc1ccc2[nH]c([S+]([O-])Cc3ncc(C)c(OC)c3C)nc2c1 (stereo not shown) [Omeprazole]
- AUC(0–t) [1, 8]: 503.8 ± 199.4 ng/mL∗h
- AUC(0–∞) [1, 8]: 528.0 ± 190.0 ng/mL∗h
- CL [1, 8]: 353 ± 127 mL/min/kg
- AUC(0–t) [1, 9]: 676.8 ± 1111.6 ng/mL∗h
- AUC(0–∞) [1, 9]: 731.8 ± 1098.8 ng/mL∗h
- CL [1, 9]: 530 ± 317 mL/min/kg
- AUC(0–t) [1, 10]: 700.1 ± 910.2 ng/mL∗h
- AUC(0–∞) [1, 10]: 704.9 ± 909.5 ng/mL∗h
- CL [1, 10]: 485 ± 277 mL/min/kg
- AUC(0–t) [1, 11]: 526.1 ± 251.2 ng/mL∗h
- AUC(0–∞) [1, 11]: 539.1 ± 252.5 ng/mL∗h
- CL [1, 11]: 372 ± 167 mL/min/kg
- Cmax ([1]; Sprague-Dawley, rat, in vivo, po, 10 mg/kg, C max): 556 ± 646 ng/mL
- half-life ([1]; Sprague-Dawley, rat, plasma, po, 10 mg/kg, t 1/2, Control group: saline i.g. 7 days (no MGCD0103), then probe 10 mg/kg (tolbutamide 1 mg/kg) i.g., rat plasma, mean ± SD, n = 10): 1.4 ± 1 h
- difference for AUC, t 1/2 between high dosage group and control group ([1]; high dosage MGCD0103 group vs control, p > 0.05): no significant difference

SMILES: Nc1ccccc1NC(=O)c1ccc(CNc2nccc(-c3cccnc3)n2)cc1 [MGCD0103, Mocetinostat]
- effect on activity of CYP2D4 enzyme [2]: not able to induce or inhibit
- effect on metabolism of tolbutamide ([3]; 7-day intragastric administration of MGCD0103, high dosage (80 mg/kg), rat): slightly induces
- effect on activities of CYP2C11 ([3]; continuous 7-day intragastric administration of MGCD0103, rats): slightly induces
- effect on activity of CYP2B1 enzyme [4]: not able to induce or inhibit
- effect on activity of CYP1A2 enzyme [5]: not able to induce or inhibit
- hepatotoxicity (pathological changes of liver) ([6]; 20, 40, 80 mg/kg i.g. 7 days, probe drugs also given): hepatotoxic and its toxicity is dose-dependent
- morphological changes of liver ([6]; high dose group, 80 mg/kg i.g. 7 days): liver cells with steatosis and small, atrophy, hyperchromatic karyopyknosis
- morphological changes of liver ([6]; low dose group, 20 mg/kg i.g. 7 days): liver cells become slightly edematous
- morphological changes of liver ([6]; middle dose group, 40 mg/kg i.g. 7 days): liver cells experienced extensive fatty changes
- effect on activity of CYP3A2 enzyme [7]: not able to induce or inhibit
